This is an account of results in US11339120B2, “Phenyl derivatives as cannabinoid receptor 2 agonists” (priority 2015, dated 2022).

Like-named read-outs stand apart in the source and are kept apart here. Bounds are passed on as bounds.

The target in one assay is T1, human CB2 receptors (Homo sapiens, UniProt P34972).
T1 construct: expressed in transfected cells; host or cells: CHO cells
As to the kind of experiment: functional cAMP assay, CHO cells expressing human CB2. It is filed as cell-based. On the procedure:
(§1) CHO cells expressing human CB1 or CB2 receptors are seeded 17-24 hours prior to the experiment 50.000 cells per well in a black 96 well plate with flat clear bottom (Corning Costar #3904) in DMEM (Invitrogen No. 31331), 1×HT supplement, with 10% fetal calf serum and incubated at 5% CO2 and 37° C. in a humidified incubator. The growth medium was exchanged with Krebs Ringer Bicarbonate buffer with 1 mM IBMX and incubated at 30° C. for 30 min. Compounds were added to a final assay volume of 100 μl and incubated for 30 min at 30° C. Using the cAMP-Nano-TRF detection kit the assay (Roche Diagnostics) was stopped by the addition of 50 μl lysis reagent (Tris, NaCl, 1.5% Triton X100, 2.5% NP40, 10% NaN3) and 50 μl detection solutions (20 μM mAb Alexa700-cAMP 1:1, and 48 μM Ruthenium-2-AHA-cAMP) and shaken for 2 h at room temperature. The time-resolved energy transfer is measured by a TRF reader (Evotec Technologies GmbH), equipped with a ND:YAG laser as excitation source. The plate is measured twice with the excitation at 355 nm and at the emission with a delay of 100 ns and a gate of 100 ns, total exposure time 10 s at 730 (bandwidth 30 nm) or 645 nm (bandwidth 75 nm), respectively. The FRET signal is calculated as follows: FRET=T730-Alexa730-P(T645-B645) with P=Ru730-B730/Ru645-B645, where T730 is the test well measured at 730 nM, T645 is the test well measured at 645 nm, B730 and B645 are the buffer controls at 730 nm and 645 nm, respectively. cAMP content is determined from the function of a standard curve spanning from 10 μM to 0.13 nM cAMP.
(§2) EC50 values were determined using Activity Base analysis (ID Business Solution, Limited). The EC50 values for a wide range of cannabinoid agonists generated from this assay were in agreement with the values published in the scientific literature.
(Changes in cAMP serve as a functional read-out for many G protein-coupled receptors.)

In a further assay the target is T2, human CB1 receptors (Homo sapiens, UniProt P21554).
T2 construct: expressed in transfected cells; host or cells: CHO cells
T2 sequence (P21554 whole entry): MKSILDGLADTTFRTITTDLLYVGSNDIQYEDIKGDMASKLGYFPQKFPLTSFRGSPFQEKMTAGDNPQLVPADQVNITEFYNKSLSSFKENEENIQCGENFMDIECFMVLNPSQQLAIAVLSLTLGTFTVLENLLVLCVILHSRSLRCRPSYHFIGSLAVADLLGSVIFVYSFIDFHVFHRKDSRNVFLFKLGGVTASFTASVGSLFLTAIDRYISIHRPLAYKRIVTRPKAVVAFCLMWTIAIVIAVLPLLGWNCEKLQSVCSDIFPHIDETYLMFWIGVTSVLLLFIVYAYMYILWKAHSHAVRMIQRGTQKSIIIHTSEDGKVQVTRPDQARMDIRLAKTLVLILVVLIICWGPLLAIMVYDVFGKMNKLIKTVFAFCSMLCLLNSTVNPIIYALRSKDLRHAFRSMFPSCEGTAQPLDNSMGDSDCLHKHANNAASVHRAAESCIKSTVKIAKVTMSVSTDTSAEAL
The assay is described as follows: functional cAMP assay, CHO cells expressing human CB1. It is filed as cell-based. The method, then: as §1, §2

Where [1] appears, read: functional cAMP assay, CHO cells expressing human CB2, read-out: Human CB2 EC50.

T1 sequence (P34972 whole entry): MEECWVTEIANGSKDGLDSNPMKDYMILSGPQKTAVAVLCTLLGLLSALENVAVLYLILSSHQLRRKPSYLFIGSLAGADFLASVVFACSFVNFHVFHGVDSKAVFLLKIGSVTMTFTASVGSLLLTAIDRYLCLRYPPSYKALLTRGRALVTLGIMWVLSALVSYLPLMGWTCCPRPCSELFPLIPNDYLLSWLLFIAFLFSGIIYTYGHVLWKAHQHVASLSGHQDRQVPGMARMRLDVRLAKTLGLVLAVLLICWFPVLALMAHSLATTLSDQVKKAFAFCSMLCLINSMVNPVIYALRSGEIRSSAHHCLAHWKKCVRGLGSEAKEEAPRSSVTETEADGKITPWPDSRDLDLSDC

For `CNC(=O)[C@@H](NC(=O)c1ccc(C2CC2)c(OCC(F)(F)F)c1)C(C)(C)C` [Example 41, 4-Cyclopropyl-N-[(2S)-3,3-dimethyl-1-(methylamino)-1-oxobutan-2-yl]-3-(2,2,2-trifluoroethoxy)benzamide], the figures for the EC50 at human CB2 receptors and on human CB1 receptors were 10 nM and 586 nM, respectively.

Turning to `NC(=O)[C@@H]1CC(F)(F)CN1C(=O)c1ccc(C2CC2)c(OCC(F)(F)F)c1` [Example 42, 1-[4-Cyclopropyl-3-(2,2,2-trifluoroethoxy)benzoyl]-4,4-difluoro-L-prolinamide], the figures for the EC50 on human CB2 receptors (setting [1]) and on human CB1 receptors were 134 nM and > 10000 nM, respectively.

For the compound `CC(C)Oc1cc(C(=O)N[C@@](C)(CC(N)=O)C2CC2)ccc1C1CC1` [Example 43, N-[(2S)-4-Amino-2-cyclopropyl-4-oxobutan-2-yl]-4-cyclopropyl-3-[(propan-2-yl)oxy]benzamide], the results for the EC50 at human CB2 receptors and at human CB1 receptors were 30.8 nM and > 10000 nM, respectively.

For `CC(C)Oc1cc(C(=O)N[C@](C)(CC(N)=O)C2CC2)ccc1C1CC1` [Example 44, N-[(2R)-4-Amino-2-cyclopropyl-4-oxobutan-2-yl]-4-cyclopropyl-3-[(propan-2-yl)oxy]benzamide], the values for the EC50 at human CB2 receptors and on human CB1 receptors were 2.91 nM and 1090 nM, respectively.

For the compound `C[C@](CC(N)=O)(NC(=O)c1ccc(C2CC2)c(OCCF)c1)C1CC1` [Example 45, N-[(2R)-4-Amino-2-cyclopropyl-4-oxobutan-2-yl]-4-cyclopropyl-3-(2-fluoroethoxy)benzamide], the EC50 (in general, the concentration needed to bring the measured effect to its halfway point) on human CB2 receptors is 7.42 nM; at human CB1 receptors, > 10000 nM.

On to `CC(C)(C)c1noc(-c2ccc(C3CC3)c(N3CCC(F)(F)C3)c2)n1` [Example 47, 3-tert-Butyl-5-[4-cyclopropyl-3-(3,3-difluoropyrrolidin-1-yl)phenyl]-1,2,4-oxadiazole], for which the EC50 at human CB2 receptors is 5.33 nM; at human CB1 receptors, > 10000 nM.

On to `CC(C)Oc1cc(C(=O)N2CC(F)(F)C[C@H]2C(N)=O)ccc1C1CC1` [Example 48, 1-{4-Cyclopropyl-3-[(propan-2-yl)oxy]benzoyl}-4,4-difluoro-L-prolinamide], for which the EC50 on human CB2 receptors (setting [1]) was 377 nM; at human CB1 receptors, > 10000 nM.

As for `Cc1nc([C@@](C)(CC2CC2)NC(=O)c2ccc(C3CC3)c(OC(C)C)c2)no1` [Example 49, 4-Cyclopropyl-N-[(2R)-1-cyclopropyl-2-(5-methyl-1,2,4-oxadiazol-3-yl)propan-2-yl]-3-[(propan-2-yl)oxy]benzamide], the EC50 at human CB2 receptors was 42.1 nM; at human CB1 receptors it was > 10000 nM.

As for `Cc1nc([C@@](C)(CC2CC2)NC(=O)c2ccc(C3CC3)c(-c3ccc(F)nc3)c2)no1` [Example 50, 4-Cyclopropyl-N-[(2R)-1-cyclopropyl-2-(5-methyl-1,2,4-oxadiazol-3-yl)propan-2-yl]-3-(6-fluoropyridin-3-yl)benzamide], the EC50 at human CB2 receptors was 53.7 nM; on human CB1 receptors, > 10000 nM.

Consider `C[C@@](CC(N)=O)(NC(=O)c1ccc(C2CC2)c(OCC(F)(F)F)c1)C1CC1` [Example 51, N-[(2S)-4-Amino-2-cyclopropyl-4-oxobutan-2-yl]-4-cyclopropyl-3-(2,2,2-trifluoroethoxy)benzamide], for which the values for the EC50 on human CB2 receptors and on human CB1 receptors were 80.8 nM and > 10000 nM, respectively.

Consider `C[C@](CC(N)=O)(NC(=O)c1ccc(C2CC2)c(-c2ccc(F)nc2)c1)C1CC1` [Example 52, N-[(2R)-4-Amino-2-cyclopropyl-4-oxobutan-2-yl]-4-cyclopropyl-3-(6-fluoropyridin-3-yl)benzamide], for which the EC50 at human CB2 receptors is 9.76 nM; on human CB1 receptors, > 10000 nM.

Consider `C[C@@](CC(N)=O)(NC(=O)c1ccc(C2CC2)c(-c2ccc(F)nc2)c1)C1CC1` [Example 53, N-[(2S)-4-Amino-2-cyclopropyl-4-oxobutan-2-yl]-4-cyclopropyl-3-(6-fluoropyridin-3-yl)benzamide], for which the EC50 was 184 nM at human CB2 receptors and > 10000 nM at human CB1 receptors.

Turning to `C[C@@](CC(N)=O)(NC(=O)c1ccc(C2CC2)c(OCCF)c1)C1CC1` [Example 54, N-[(2S)-4-Amino-2-cyclopropyl-4-oxobutan-2-yl]-4-cyclopropyl-3-(2-fluoroethoxy)benzamide], the EC50 is 231 nM at human CB2 receptors and > 10000 nM on human CB1 receptors.

As for `Cn1nccc1-c1cc(C(=O)N2CC(F)(F)C[C@H]2C(N)=O)ccc1C1CC1` [Example 55, 1-[4-Cyclopropyl-3-(1-methyl-1H-pyrazol-5-yl)benzoyl]-4,4-difluoro-L-prolinamide], the values for the 50% effective concentration (EC50) on human CB2 receptors (setting [1]) and at human CB1 receptors were 1910 nM and > 10000 nM, respectively.

Consider `CNC(=O)[C@@H](NC(=O)c1ccc(C2CC2)c(-c2ccnn2C)c1)C(C)(C)C` [Example 56, 4-Cyclopropyl-N-[(2S)-3,3-dimethyl-1-(methylamino)-1-oxobutan-2-yl]-3-(1-methyl-1H-pyrazol-5-yl)benzamide], for which the 50% effective concentration (EC50) on human CB2 receptors (setting [1]) was 140 nM; at human CB1 receptors, > 10000 nM.

With `NC(=O)[C@@H]1CC(F)(F)CN1C(=O)c1ccc(C2CC2)c(-c2ccc(F)nc2)c1` [Example 57, 1-[4-Cyclopropyl-3-(6-fluoropyridin-3-yl)benzoyl]-4,4-difluoro-L-prolinamide], the EC50 at human CB2 receptors (setting [1]) is 274 nM; at human CB1 receptors it was > 10000 nM.

Regarding `CNC(=O)[C@@H](NC(=O)c1ccc(C2CC2)c(-c2ccc(F)nc2)c1)C(C)(C)C` [Example 58, 4-Cyclopropyl-N-[(2S)-3,3-dimethyl-1-(methylamino)-1-oxobutan-2-yl]-3-(6-fluoropyridin-3-yl)benzamide], the results for the half-maximal effective concentration (EC50) on human CB2 receptors and at human CB1 receptors were 11.8 nM and 388 nM, respectively.

Regarding `Cc1nc([C@](C)(CC2CC2)NC(=O)c2ccc(C3CC3)c(-c3ccnn3C)c2)no1` [Example 59, 4-Cyclopropyl-N-[(2S)-1-cyclopropyl-2-(5-methyl-1,2,4-oxadiazol-3-yl)propan-2-yl]-3-(1-methyl-1H-pyrazol-5-yl)benzamide], the figures for the EC50 at human CB2 receptors (setting [1]) and on human CB1 receptors were 282 nM and > 10000 nM, respectively.

For `Cc1nc([C@](C)(CC2CC2)NC(=O)c2ccc(C3CC3)c(-c3ccc(F)nc3)c2)no1` [Example 60, 4-Cyclopropyl-N-[(2S)-1-cyclopropyl-2-(5-methyl-1,2,4-oxadiazol-3-yl)propan-2-yl]-3-(6-fluoropyridin-3-yl)benzamide], the concentration for a half-maximal effect (EC50) on human CB2 receptors is 98.4 nM; at human CB1 receptors it was > 10000 nM.

Turning to `C[C@](CC(N)=O)(NC(=O)c1ccc(C2CC2)c(N2CCC(F)(F)C2)c1)C1CC1` [Example 61, N-[(2R)-4-Amino-2-cyclopropyl-4-oxobutan-2-yl]-4-cyclopropyl-3-(3,3-difluoropyrrolidin-1-yl)benzamide], the values for the EC50 at human CB2 receptors and at human CB1 receptors were 2.5 nM and 1790 nM, respectively.

For `C[C@@](CC(N)=O)(NC(=O)c1ccc(C2CC2)c(N2CCC(F)(F)C2)c1)C1CC1` [Example 62, N-[(2S)-4-Amino-2-cyclopropyl-4-oxobutan-2-yl]-4-cyclopropyl-3-(3,3-difluoropyrrolidin-1-yl)benzamide], the concentration giving a half-maximal response (EC50) on human CB2 receptors was 25.9 nM; at human CB1 receptors it was > 10000 nM.

`Cc1nc([C@@](C)(CC2CC2)NC(=O)c2ccc(C3CC3)c(N3CCC(F)(F)C3)c2)no1` [Example 63, 4-Cyclopropyl-N-[(2R)-1-cyclopropyl-2-(5-methyl-1,2,4-oxadiazol-3-yl)propan-2-yl]-3-(3,3-difluoropyrrolidin-1-yl)benzamide]: the EC50 at human CB2 receptors was found to be 3.83 nM; at human CB1 receptors, 872 nM.

As to `Cc1nc([C@](C)(CC2CC2)NC(=O)c2ccc(C3CC3)c(N3CCC(F)(F)C3)c2)no1` [Example 64, 4-Cyclopropyl-N-[(2S)-1-cyclopropyl-2-(5-methyl-1,2,4-oxadiazol-3-yl)propan-2-yl]-3-(3,3-difluoropyrrolidin-1-yl)benzamide], the EC50 on human CB2 receptors was 1.08 nM; on human CB1 receptors, > 10000 nM.

With `NC(=O)[C@@H]1CC(F)(F)CN1C(=O)c1ccc(C2CC2)c(N2CCC(F)(F)C2)c1` [Example 65, 1-[4-Cyclopropyl-3-(3,3-difluoropyrrolidin-1-yl)benzoyl]-4,4-difluoro-L-prolinamide], the concentration for a half-maximal effect (EC50) is 18.1 nM at human CB2 receptors and > 10000 nM on human CB1 receptors.

As for `CNC(=O)[C@@H](NC(=O)c1ccc(C2CC2)c(N2CCC(F)(F)C2)c1)C(C)(C)C` [Example 66, 4-Cyclopropyl-3-(3,3-difluoropyrrolidin-1-yl)-N-[(2S)-3,3-dimethyl-1-(methylamino)-1-oxobutan-2-yl]benzamide], the EC50 at human CB2 receptors turned out to be 0.48 nM; on human CB1 receptors it was 42.1 nM.

Turning to `Cc1nc(C(NC(=O)c2ccc(C3CC3)c(OCC(F)(F)F)c2)C2(C)COC2)no1` (stereo not shown) [Example 67, 4-Cyclopropyl-N-[(5-methyl-1,2,4-oxadiazol-3-yl)(3-methyloxetan-3-yl)methyl]-3-(2,2,2-trifluoroethoxy)benzamide], the EC50 is 263 nM at human CB2 receptors (setting [1]) and > 10000 nM at human CB1 receptors.
